Assay results published in ChEMBL document CHEMBL4806964, “Heterocyclic compound” (2019).

Tests used:
[1] = target: T1, CDK12/Cyclin K (Homo sapiens) (UniProt O75909+Q9NYV4); experiment: Inhibition of BODIPY-FL-labeled AT-7519 binding to human His-tagged CDK12/CycK assessed as BODIPY-FL-labeled AT-7519 binding by measuring fluorescence intensity at 1 uM incubated for 120 mins in presence of 3 uM BODIPY-FL-labeled AT-7519 by TR-FRET assay relative to control; type: protein-complex assay
[2] = target: T1, CDK12/Cyclin K (Homo sapiens); experiment: Inhibition of BODIPY-FL-labeled AT-7519 binding to human His-tagged CDK12/CycK assessed as BODIPY-FL-labeled AT-7519 binding by measuring fluorescence intensity at 1 uM incubated for 120 mins in presence of 30 uM BODIPY-FL-labeled AT-7519 by TR-FRET assay relative to control; type: protein-complex assay
[3] = target: T1, CDK12/Cyclin K (Homo sapiens); experiment: Inhibition of human CDK12/CycK in human A2780 cells assessed as intracellular phosphorylated CTD Ser2 art 1 uM by In-Cell Western method relative to control; type: cell-based
[4] = target: T1, CDK12/Cyclin K (Homo sapiens); experiment: Inhibition of human His-tagged CDK12/CycK using ULight-labeled eIF4E-binding protein 1 substrate at 1 uM incubated for 60 mins by fluorescence based assay relative to control; type: protein-complex assay
A2780 = experiment: Antiproliferative activity against human A2780 cells at 1 uM by CellTiter-Glo reagent assay relative to control; type: functional

T1 sequence (O75909 whole entry, looked up): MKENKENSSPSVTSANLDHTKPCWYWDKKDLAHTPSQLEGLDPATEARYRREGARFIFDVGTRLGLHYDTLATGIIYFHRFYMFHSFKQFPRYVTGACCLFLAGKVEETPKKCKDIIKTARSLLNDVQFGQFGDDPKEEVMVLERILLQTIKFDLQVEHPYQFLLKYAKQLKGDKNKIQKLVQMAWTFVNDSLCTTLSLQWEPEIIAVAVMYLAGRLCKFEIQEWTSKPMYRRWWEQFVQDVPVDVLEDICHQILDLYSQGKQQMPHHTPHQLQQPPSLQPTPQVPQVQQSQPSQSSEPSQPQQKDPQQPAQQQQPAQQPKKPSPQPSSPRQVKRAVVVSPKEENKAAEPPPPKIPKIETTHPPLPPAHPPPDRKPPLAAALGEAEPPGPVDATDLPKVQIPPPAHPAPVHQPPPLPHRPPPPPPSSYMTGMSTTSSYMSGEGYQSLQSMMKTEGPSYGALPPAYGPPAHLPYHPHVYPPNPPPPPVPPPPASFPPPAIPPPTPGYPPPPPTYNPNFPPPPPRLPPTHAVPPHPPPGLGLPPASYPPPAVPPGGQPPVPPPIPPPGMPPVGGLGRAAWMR
T1 sequence (Q9NYV4 whole entry, looked up): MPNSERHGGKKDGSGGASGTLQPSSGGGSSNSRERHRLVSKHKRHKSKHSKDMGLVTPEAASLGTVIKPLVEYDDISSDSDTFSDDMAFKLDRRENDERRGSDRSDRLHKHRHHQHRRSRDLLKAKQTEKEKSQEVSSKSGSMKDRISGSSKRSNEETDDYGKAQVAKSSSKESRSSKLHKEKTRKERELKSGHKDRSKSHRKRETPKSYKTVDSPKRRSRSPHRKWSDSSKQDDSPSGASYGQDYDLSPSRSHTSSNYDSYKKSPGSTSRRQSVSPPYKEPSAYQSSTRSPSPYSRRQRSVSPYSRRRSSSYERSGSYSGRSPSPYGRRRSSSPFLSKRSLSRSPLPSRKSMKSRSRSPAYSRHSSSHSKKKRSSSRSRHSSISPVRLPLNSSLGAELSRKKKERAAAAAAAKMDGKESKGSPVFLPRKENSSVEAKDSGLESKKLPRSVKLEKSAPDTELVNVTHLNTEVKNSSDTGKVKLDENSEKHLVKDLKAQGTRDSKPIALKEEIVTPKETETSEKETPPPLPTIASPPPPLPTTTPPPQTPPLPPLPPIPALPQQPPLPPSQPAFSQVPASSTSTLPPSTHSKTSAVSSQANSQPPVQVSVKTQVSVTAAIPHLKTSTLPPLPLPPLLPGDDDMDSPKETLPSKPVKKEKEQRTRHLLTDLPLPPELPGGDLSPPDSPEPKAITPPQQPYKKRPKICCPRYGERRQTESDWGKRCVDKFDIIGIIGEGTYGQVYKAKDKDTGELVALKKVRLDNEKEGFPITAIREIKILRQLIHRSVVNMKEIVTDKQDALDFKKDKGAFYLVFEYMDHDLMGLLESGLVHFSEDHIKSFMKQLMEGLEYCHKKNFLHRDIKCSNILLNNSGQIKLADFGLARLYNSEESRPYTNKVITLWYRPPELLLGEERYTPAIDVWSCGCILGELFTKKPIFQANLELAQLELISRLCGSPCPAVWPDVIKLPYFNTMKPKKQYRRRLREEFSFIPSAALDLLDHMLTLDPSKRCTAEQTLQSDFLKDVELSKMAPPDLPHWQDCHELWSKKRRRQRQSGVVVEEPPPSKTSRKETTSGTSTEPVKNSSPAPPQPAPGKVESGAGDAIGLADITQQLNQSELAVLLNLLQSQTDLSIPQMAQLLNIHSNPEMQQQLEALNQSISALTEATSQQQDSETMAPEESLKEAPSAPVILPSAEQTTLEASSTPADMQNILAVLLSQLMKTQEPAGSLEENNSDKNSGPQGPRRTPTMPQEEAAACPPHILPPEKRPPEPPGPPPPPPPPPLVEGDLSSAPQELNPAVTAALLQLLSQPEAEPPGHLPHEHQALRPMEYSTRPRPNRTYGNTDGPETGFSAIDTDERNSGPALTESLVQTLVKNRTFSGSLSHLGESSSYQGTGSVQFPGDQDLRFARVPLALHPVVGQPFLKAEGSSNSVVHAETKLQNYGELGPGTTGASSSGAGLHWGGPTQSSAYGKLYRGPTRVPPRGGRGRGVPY

Row | inhibition [1] [%] | inhibition [2] [%] | SMILES | other results
1 | – | 91 | COCCOC(=O)N(c1cnc(-c2cnc(OC)nc2)cn1)[C@H]1CC[C@H](Nc2ncc(C(F)(F)F)c(-c3cncc(S(N)(=O)=O)c3)n2)CC1 | –
2 | – | 95 | COCC(=O)N(c1cnc(-c2cnn(C)c2)cn1)[C@H]1CC[C@H](Nc2ncc(C(F)(F)F)c(-c3cncc(S(N)(=O)=O)c3)n2)CC1 | –
3 | – | 99 | CCCC(=O)N(c1cnc(-c2cnn(C)c2)cn1)[C@H]1CC[C@H](Nc2ncc(C(F)(F)F)c(-c3cncc(S(N)(=O)=O)c3)n2)CC1 | –
4 | – | 90 | COCCNC(=O)N(c1cnc(-c2cnc(OC)nc2)cn1)[C@H]1CC[C@H](Nc2ncc(C(F)(F)F)c(-c3ccn(C(F)F)n3)n2)CC1 | –
5 | – | 99 | COc1ncc(-c2cnc(N(C(=O)OCCN3CCOCC3)[C@H]3CC[C@H](Nc4ncc(C(F)(F)F)c(-c5cncc(S(N)(=O)=O)c5)n4)CC3)cn2)cn1 | –

Second part, the molecule before the results:

Row | SMILES | inhibition [1] [%] | inhibition [2] [%] | other results
6 | COc1ncc(-c2ccc(N(C(=O)COc3ccccc3)[C@H]3CC[C@H](Nc4ncc(C#N)c(N5CCCC(O)CC5)n4)CC3)nc2)cn1 (some centres undefined) | 104 | – | –
7 | Cn1cc(-c2ccc(N(C(=O)NCc3ccccc3)[C@H]3CC[C@H](Nc4ncc(C#N)c(-c5[nH]ncc5O)n4)CC3)nc2)cn1 | 96 | – | –
8 | COc1ncc(-c2ccc(N(C(=O)COc3ccccc3)[C@H]3CC[C@H](Nc4ncc(C#N)c(OC5COC5)n4)CC3)nc2)cn1 | 98 | – | –
9 | COc1ncc(-c2cnc(N(C(=O)COc3ccccc3)[C@H]3CC[C@H](Nc4ncc(C(F)(F)F)c(N5CC(C)(O)C5)n4)CC3)cn2)cn1 | 100 | – | –
10 | COc1ncc(-c2cnc(N(C(=O)NCc3ccccc3)[C@H]3CC[C@H](Nc4ncc(C#N)c(N5CC(C)(O)C5)n4)CC3)nc2)cn1 | 95 | – | inhibition [3]: 54%; inhibition [4]: 105%; inhibition at 1 µM (A2780): 94%
11 | COc1ncc(-c2cnc(N(C(=O)NCc3ccccc3)[C@H]3CC[C@H](Nc4ncc(C(F)(F)F)c(N5CC(C)(O)C5)n4)CC3)cn2)cn1 | 103 | – | –
12 | COc1ncc(-c2cnc(N(C(=O)NCc3ccccn3)[C@H]3CC[C@H](Nc4ncc(C(F)(F)F)c(OC5COC5)n4)CC3)nc2)cn1 | 103 | – | inhibition [4]: 99%; inhibition at 1 µM (A2780): 98%
13 | COc1ncc(-c2cnc(N(C(=O)NCc3ccccc3)[C@H]3CC[C@H](Nc4ncc(C(F)(F)F)c(NC5COC5)n4)CC3)nc2)cn1 | 96 | – | –
14 | COc1ncc(-c2cnc(N(C(=O)NCc3ccccc3)[C@H]3CC[C@H](Nc4ncc(C#N)c(N5CCCC(O)CC5)n4)CC3)nc2)cn1 (some centres undefined) | – | – | inhibition [3]: 48%
